Where two headings read alike, the source gives them in different places.

The record followed here is PMC10999543, “Identification of kinase modulators as host-directed therapeutics against intracellular methicillin-resistant Staphylococcus aureus” (Frontiers in Cellular and Infection Microbiology, 2024).

In one data set the test system is intracellular MRSA. Type of data set: cell-based, Staphylococcus aureus. The note with it: for %GFP+ rep 1 / z-scoreMRSA+ rep 1: replicate 1; for %GFP+ rep 2 / z-scoreMRSA+ rep 2: replicate 2; for %GFP+ rep 3 / z-scoreMRSA+ rep 3: replicate 3; for z-scoreMRSA+ mean: mean of 3 replicates. Summed up:
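HeLa, MRSA-GFP at MOI ~6.8, 1 h infection; gentamicin 30 µg/ml for 15 min; inhibitor plus gentamicin 5 µg/ml overnight, 37°C/5% CO2; triplicate plates; FACS %GFP+ and cell count; hit = z ≤ -2 MRSA+, z ≥ -3 count.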

The next data set relates to HeLa cells. Kind of data set: Compound screen by flow cytometry: HeLa cell count as surrogate readout of cell viability (z-scoreHeLa). Type of data set: cell-based, human. The note with it: for cell count rep 1 / z-scoreHeLa rep 1: replicate 1; for cell count rep 2 / z-scoreHeLa rep 2: replicate 2; for cell count rep 3 / z-scoreHeLa rep 3: replicate 3; for z-scoreHeLa mean: mean of 3 replicates. In a few lines: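 HeLa cells were infected with GFP-MRSA (mean MOI 6.8 ± 4.6) for 1 h, and extracellular bacteria were killed with 30 µg/ml gentamicin. Cells were then incubated overnight with kinase inhibitors in 5 µg/ml gentamicin, in triplicate against DMSO controls. Flow-cytometric cell count served as a viability surrogate, expressed as a plate z-score.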
In general terms: In flow cytometry, cells or beads pass a laser one at a time.

The mark [1] stands for this setting: PKIS compound screen raw data, MRSA-infected HeLa cells.
Setting [2] is: PKIS compound screen, MRSA-infected HeLa cells.
The mark [3] stands for this setting: PKIS compound screen, Yes/No call (effect without cell death).
Where [4] appears, read: PKIS compound screen, Yes/No call on z-scoreMRSA+.
Where [5] appears, read: PKIS compound screen raw data, HeLa cell count.
Setting [6] is: PKIS compound screen, HeLa cell count.
The mark [7] stands for this setting: PKIS compound screen, Yes/No call on z-scoreHeLa.
[8] abbreviates: PKIS compounds raw data, MRSA-infected HeLa cells.
Setting [9] is: Yes/No: effect without cell death.
Setting [10] is: compound screen, MRSA-infected HeLa cells.
[11] abbreviates: PKIS compounds raw data, HeLa cell count.
Setting [12] is: compound screen, HeLa cell count.
Where [13] appears, read: PKIS compound screen, Yes/No call.

As for `O=c1cc(N2CCOCC2)nc2n(Cc3cccc4ccccc34)ccn12` [GSK2333389A], in the data set on intracellular MRSA (setting [1]), the “%GFP+ rep 1” value was 11.3%, the “%GFP+ rep 2” value is reported as 12.1% and the “%GFP+ rep 3” value is 12.6%. In addition, in the data set with intracellular MRSA (setting [2]), the “z-scoreMRSA+ mean” value is recorded as -2.07, the “z-scoreMRSA+ rep 1” value is reported as -2.08, the “z-scoreMRSA+ rep 2” value is on record as -1.93 and the “z-scoreMRSA+ rep 3” value was -2.19. For the same compound, in the data set on intracellular MRSA (setting [3]), the hit entry is reported as “Yes”. In the data set with intracellular MRSA (setting [4]), the effect entry is reported as “Yes”. In the data set with HeLa cells (setting [5]), the “cell count rep 1” value is reported as 20901, the “cell count rep 2” value stood at 33281 and the “cell count rep 3” value is reported as 38349. In addition, in the data set with HeLa cells (setting [6]), the z-scoreHeLa mean was -0.17, the “z-scoreHeLa rep 1” value was 0.12, the “z-scoreHeLa rep 2” value is -0.28 and the “z-scoreHeLa rep 3” value is recorded as -0.35. Moreover, the cell death entry in the data set on HeLa cells (setting [7]) is “No”.
Regarding `Cl.Cl.Cl.Fc1ccc(-c2ncn(C3CCNCC3)c2-c2ccnc(Nc3ccccc3)n2)cc1` [SB-238039-R], in the data set on intracellular MRSA (setting [8]), the “%GFP+ rep 1” value was determined as 7.4%, the “%GFP+ rep 2” value is 6.7% and the “%GFP+ rep 3” value turned out to be 6.5%. Also, the effect entry in the data set on intracellular MRSA (Yes/No call from z-scoreMRSA+) is recorded as “Yes”. Also, the hit entry in the data set with intracellular MRSA (setting [9]) is given as “Yes”. In the data set with intracellular MRSA (setting [10]), the “z-scoreMRSA+ mean” value was -2.31, the “z-scoreMRSA+ rep 1” value is -1.86, the “z-scoreMRSA+ rep 2” value is given as -2.29 and the “z-scoreMRSA+ rep 3” value is on record as -2.78. Moreover, in the data set on HeLa cells (setting [11]), the “cell count rep 1” value was determined as 1720, the “cell count rep 2” value worked out at 1088 and the “cell count rep 3” value amounted to 3178. Also, the cell death entry in the data set on HeLa cells (Yes/No call from z-scoreHeLa) is “No”. Also, in the data set with HeLa cells (setting [12]), the z-scoreHeLa mean was -2.33, the “z-scoreHeLa rep 1” value was -2.76, the “z-scoreHeLa rep 2” value was -2.40 and the “z-scoreHeLa rep 3” value was -1.81.
In the case of `Cc1n[nH]c2ccc(-c3cc(OC[C@@H](N)Cc4ccccc4)cnc3-c3ccoc3)cc12` [GSK507358A], the effect result with intracellular MRSA (setting [13]) is given as “No”. The hit result with intracellular MRSA (setting [3]) is reported as “No”. In the data set with intracellular MRSA (PKIS compound screen), the “z-scoreMRSA+ mean” value is listed as -1.58, the “z-scoreMRSA+ rep 1” value is given as -1.88, the “z-scoreMRSA+ rep 2” value is recorded as -1.31 and the “z-scoreMRSA+ rep 3” value was -1.55. Besides, in the data set with intracellular MRSA (setting [8]), the “%GFP+ rep 1” value amounted to 17.4%, the “%GFP+ rep 2” value stood at 19.2% and the “%GFP+ rep 3” value came to 18.9%. The cell death result in the data set on HeLa cells (setting [13]) is “No”. Also, in the data set with HeLa cells (PKIS compound screen), the z-scoreHeLa mean was 1.21, the “z-scoreHeLa rep 1” value was determined as 1.04, the “z-scoreHeLa rep 2” value was found to be 1.55 and the “z-scoreHeLa rep 3” value turned out to be 1.04. In addition, in the data set with HeLa cells (setting [11]), the “cell count rep 1” value was determined as 7770, the “cell count rep 2” value was determined as 8336 and the “cell count rep 3” value came out at 7240.
Regarding `O=C(Nc1ccccc1F)NC1CCN(c2ccnc(Nc3ccc(F)cc3)n2)C1` (centres unmarked) [GSK1379722A], in the data set with intracellular MRSA (setting [1]), the “%GFP+ rep 1” value stood at 20.2%, the “%GFP+ rep 2” value is reported as 23.8% and the “%GFP+ rep 3” value amounted to 25.6%. Further, in the data set on intracellular MRSA (setting [2]), the “z-scoreMRSA+ mean” value was determined as 1.37, the “z-scoreMRSA+ rep 1” value is recorded as 0.74, the “z-scoreMRSA+ rep 2” value is on record as 1.59 and the “z-scoreMRSA+ rep 3” value is given as 1.77. The effect result with intracellular MRSA (setting [13]) was “No”. Besides, the hit entry in the data set on intracellular MRSA (setting [3]) is recorded as “No”. The effect result in the data set on intracellular MRSA (setting [4]) was “No”. Besides, in the data set on intracellular MRSA (PKIS compound screen), the “z-scoreMRSA+ mean” value turned out to be 1.11, the “z-scoreMRSA+ rep 1” value was 1.04, the “z-scoreMRSA+ rep 2” value came to 1.28 and the “z-scoreMRSA+ rep 3” value stood at 1.01. For the same compound, in the data set on intracellular MRSA (setting [8]), the “%GFP+ rep 1” value is 32.4%, the “%GFP+ rep 2” value is 32.7% and the “%GFP+ rep 3” value is 32.7%. For the same compound, in the data set with HeLa cells (setting [5]), the “cell count rep 1” value worked out at 32994, the “cell count rep 2” value stood at 39130 and the “cell count rep 3” value amounted to 43503. In the data set on HeLa cells (setting [6]), the z-scoreHeLa mean is 1.08, the “z-scoreHeLa rep 1” value is 1.95, the “z-scoreHeLa rep 2” value is given as 0.81 and the “z-scoreHeLa rep 3” value is on record as 0.47. In addition, the cell death result with HeLa cells (setting [13]) is “No”. Also, the cell death result in the data set on HeLa cells (setting [7]) is recorded as “No”. In the data set on HeLa cells (PKIS compound screen), the z-scoreHeLa mean is recorded as 0.96, the “z-scoreHeLa rep 1” value is given as 1.17, the “z-scoreHeLa rep 2” value was found to be 0.61 and the “z-scoreHeLa rep 3” value came out at 1.09. Also, in the data set with HeLa cells (setting [11]), the “cell count rep 1” value stood at 7997, the “cell count rep 2” value came out at 6922 and the “cell count rep 3” value came to 7324.
`Cc1ccc(NC(=O)c2ccc(Cl)cc2)cc1-c1ccc(C(=O)Nc2ccncc2)cc1` [GSK1398467A]: in the data set on intracellular MRSA (setting [1]), the “%GFP+ rep 1” value was 17.7%, the “%GFP+ rep 2” value is listed as 18.1% and the “%GFP+ rep 3” value is on record as 16.2%. In the data set on intracellular MRSA (setting [2]), the “z-scoreMRSA+ mean” value was -0.42, the “z-scoreMRSA+ rep 1” value is given as -0.05, the “z-scoreMRSA+ rep 2” value is -0.13 and the “z-scoreMRSA+ rep 3” value is -1.09. Moreover, the hit entry in the data set with intracellular MRSA (setting [3]) is recorded as “No”. The effect result in the data set with intracellular MRSA (setting [4]) is listed as “No”. In the data set with HeLa cells (setting [5]), the “cell count rep 1” value came to 10600, the “cell count rep 2” value was 12964 and the “cell count rep 3” value was determined as 20345. Moreover, in the data set on HeLa cells (setting [6]), the z-scoreHeLa mean is -2.91, the “z-scoreHeLa rep 1” value is given as -1.44, the “z-scoreHeLa rep 2” value is on record as -4.07 and the “z-scoreHeLa rep 3” value was -3.21. The cell death entry in the data set with HeLa cells (setting [7]) is “No”.
Consider `Cc1c(Cn2ccn3c(=O)cc(N4CCOCC4)nc23)cccc1C(F)(F)F` [GSK2289044B], for which, in the data set with intracellular MRSA (setting [1]), the “%GFP+ rep 1” value is listed as 13.5%, the “%GFP+ rep 2” value was determined as 15.4% and the “%GFP+ rep 3” value was determined as 14.7%. In the data set on intracellular MRSA (setting [2]), the “z-scoreMRSA+ mean” value is reported as -1.29, the “z-scoreMRSA+ rep 1” value was -1.38, the “z-scoreMRSA+ rep 2” value is -0.94 and the “z-scoreMRSA+ rep 3” value was -1.55. In the data set with intracellular MRSA (setting [3]), the hit entry is “No”. Moreover, the effect result in the data set on intracellular MRSA (setting [4]) is “No”. Further, in the data set with HeLa cells (setting [5]), the “cell count rep 1” value is given as 23358, the “cell count rep 2” value was determined as 26653 and the “cell count rep 3” value was 34666. Moreover, in the data set on HeLa cells (setting [6]), the z-scoreHeLa mean is reported as -0.65, the “z-scoreHeLa rep 1” value turned out to be 0.49, the “z-scoreHeLa rep 2” value is listed as -1.52 and the “z-scoreHeLa rep 3” value is recorded as -0.93. For the same compound, the cell death result with HeLa cells (setting [7]) is “No”.
For `COc1cccc(C2=C(Nc3ccc(Cl)c(C(=O)O)c3)C(=O)NC2=O)c1` [SB-390769], the effect entry in the data set on intracellular MRSA (setting [13]) is given as “No”. The hit entry in the data set with intracellular MRSA (setting [3]) is on record as “No”. In the data set with intracellular MRSA (PKIS compound screen), the “z-scoreMRSA+ mean” value came to 0.47, the “z-scoreMRSA+ rep 1” value is given as -0.05, the “z-scoreMRSA+ rep 2” value worked out at 0.72 and the “z-scoreMRSA+ rep 3” value is given as 0.73. For the same compound, in the data set on intracellular MRSA (setting [8]), the “%GFP+ rep 1” value is 26.8%, the “%GFP+ rep 2” value is 29.8% and the “%GFP+ rep 3” value is 31.2%. Besides, the cell death result with HeLa cells (setting [13]) is recorded as “No”. Further, in the data set with HeLa cells (PKIS compound screen), the z-scoreHeLa mean was 1.73, the “z-scoreHeLa rep 1” value was 0.80, the “z-scoreHeLa rep 2” value is recorded as 1.87 and the “z-scoreHeLa rep 3” value was determined as 2.53. For the same compound, in the data set on HeLa cells (setting [11]), the “cell count rep 1” value is recorded as 7373, the “cell count rep 2” value is 8825 and the “cell count rep 3” value came out at 9583.
On to `NCCCC(NC(=O)c1cc(Br)c(-c2ccnc3[nH]ccc23)s1)c1ccccc1` (centres unmarked) [GSK1287544A], for which, in the data set on intracellular MRSA (setting [1]), the “%GFP+ rep 1” value turned out to be 26.9%, the “%GFP+ rep 2” value worked out at 27.6% and the “%GFP+ rep 3” value worked out at 25.5%. Further, the effect result in the data set with intracellular MRSA (Yes/No call from z-scoreMRSA+) is reported as “No”. The hit result with intracellular MRSA (setting [9]) was “No”. Also, in the data set on intracellular MRSA (setting [10]), the “z-scoreMRSA+ mean” value is 0.86, the “z-scoreMRSA+ rep 1” value was 0.38, the “z-scoreMRSA+ rep 2” value was 1.21 and the “z-scoreMRSA+ rep 3” value is on record as 0.99. In the data set on HeLa cells (setting [5]), the “cell count rep 1” value worked out at 6296, the “cell count rep 2” value came to 6004 and the “cell count rep 3” value was 7754. Besides, the cell death result in the data set with HeLa cells (Yes/No call from z-scoreHeLa) was “No”. Also, in the data set with HeLa cells (setting [12]), the z-scoreHeLa mean was 1.43, the “z-scoreHeLa rep 1” value was 1.40, the “z-scoreHeLa rep 2” value is listed as 1.31 and the “z-scoreHeLa rep 3” value turned out to be 1.59.
